Experimental data taken from patent publication US11607414B2, “Small molecule inhibitors of EGFR and PI3K” (The Regents of the University of Michigan, priority 2014, dated 2023).

Tests used:
EGFR = EGFR (Homo sapiens, UniProt P00533); test: Z'-LYTE biochemical kinase assay, EGFR
Method: Various compounds were tested for their ability to inhibit EGFR and PIK3CA. The assays determining inhibitions are given in Example 2 Assays-Z′-LYTE® and ADAPTA.
Assays: The Z′-LYTE® biochemical assay employs a fluorescence-based, coupled-enzyme format and is based on the differential sensitivity of phosphorylated and non-phosphorylated peptides to proteolytic cleavage (FIG. 6). The peptide substrate is labeled with two fluorophores—one at each end— that make up a FRET pair. In the primary reaction, the kinase transfers the gamma-phosphate of ATP to a single tyrosine, serine or threonine residue in a synthetic FRET-peptide. […] A ratiometric method, which calculates the ratio (the Emission Ratio) of donor emission to acceptor emission after excitation of the donor fluorophore at 400 nm, is used to quantitate reaction progress.
A significant benefit of this ratiometric method for quantitating reaction progress is the elimination of well-to-well variations in FRET-peptide concentration and signal intensities. […]
Both cleaved and uncleaved FRET-peptides contribute to the fluorescence signals and therefore to the Emission Ratio. The extent of phosphorylation of the FRET-peptide can be calculated from the Emission Ratio. […]
Bar-coded Corning, low volume NBS, black 384-well plate (Corning Cat. 4514) 1. […] Read on fluorescence plate reader and analyze the data.

[1] = system: KRAS mutant HCT-116 cells; test: HCT-116 cell viability / proliferation (Cell Titer Glo); type: cell-based
Method: Cell proliferation was determined using the Cell Titer Glo assay (Promega, Madison, Wis.). Cell lines were seeded at a density between 2,000 and 5,000 cells per well in a 96-well plate. Twenty four hours after plating, cells were dosed with varying concentrations of drug, either as a single agent or in combination. The signal for Cell Titer Glo was determined 72 or 96 hours after dosing.

Chain of EGFR (P00533 25-1210): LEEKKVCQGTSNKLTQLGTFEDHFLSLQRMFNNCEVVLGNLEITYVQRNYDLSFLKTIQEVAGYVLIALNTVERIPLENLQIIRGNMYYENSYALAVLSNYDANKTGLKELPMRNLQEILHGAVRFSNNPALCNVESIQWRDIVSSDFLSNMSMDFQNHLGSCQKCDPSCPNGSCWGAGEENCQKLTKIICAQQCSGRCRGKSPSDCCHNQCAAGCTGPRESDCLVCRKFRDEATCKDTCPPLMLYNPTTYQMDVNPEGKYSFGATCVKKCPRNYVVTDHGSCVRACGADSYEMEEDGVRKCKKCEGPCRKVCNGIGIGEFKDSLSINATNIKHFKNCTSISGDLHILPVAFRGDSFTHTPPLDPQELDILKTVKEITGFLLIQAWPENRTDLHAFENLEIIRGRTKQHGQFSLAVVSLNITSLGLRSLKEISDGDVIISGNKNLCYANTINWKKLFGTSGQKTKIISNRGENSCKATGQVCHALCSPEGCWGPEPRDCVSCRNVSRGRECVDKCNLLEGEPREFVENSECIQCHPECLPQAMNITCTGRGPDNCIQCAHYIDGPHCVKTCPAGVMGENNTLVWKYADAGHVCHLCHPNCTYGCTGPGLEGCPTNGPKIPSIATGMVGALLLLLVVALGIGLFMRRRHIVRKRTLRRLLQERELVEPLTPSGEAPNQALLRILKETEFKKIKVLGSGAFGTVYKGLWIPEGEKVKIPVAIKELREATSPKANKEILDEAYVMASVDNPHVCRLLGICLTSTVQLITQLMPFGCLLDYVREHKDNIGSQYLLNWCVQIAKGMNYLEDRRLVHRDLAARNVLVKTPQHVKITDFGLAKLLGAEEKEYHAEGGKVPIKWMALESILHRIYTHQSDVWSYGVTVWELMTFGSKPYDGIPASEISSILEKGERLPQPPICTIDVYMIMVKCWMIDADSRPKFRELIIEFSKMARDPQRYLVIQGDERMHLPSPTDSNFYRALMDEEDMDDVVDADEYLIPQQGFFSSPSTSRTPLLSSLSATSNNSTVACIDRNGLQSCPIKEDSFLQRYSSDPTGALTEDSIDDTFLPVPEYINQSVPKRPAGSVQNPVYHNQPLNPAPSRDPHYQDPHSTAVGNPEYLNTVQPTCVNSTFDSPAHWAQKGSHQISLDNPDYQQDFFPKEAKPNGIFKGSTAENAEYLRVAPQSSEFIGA

inhibition of / potency against purified EGFR (in words) (EGFR): potent dual inhibition
SMILES: CS(=O)(=O)Nc1cncc(-c2ccc3ncnc(Nc4cccc(Cl)c4)c3c2)c1 [MOL-162, N-(5-(4-((3-chlorophenyl)amino)quinazolin-6-yl)pyridin-3-yl)methanesulfonamide]
cytotoxicity [1]: cytotoxicity
